For one data set, the system named is Spodoptera littoralis. The experiment in a line: Spodoptera littoralis (Egyptian cotton leaf worm) cotton leaf disc spray test. Type of data set: in vivo. Particulars: foliar, 72 h, application rate 200 ppm, L1 larvae, 3 days after infestation, vs untreated, read-out: control (at least one of mortality, anti-feedant effect, growth inhibition). Here is the method: Spodoptera littoralis (Egyptian Cotton Leaf Worm)
Cotton leaf discs were placed on agar in 24-well microtiter plates and sprayed with aqueous test solutions prepared from 10′000 ppm DMSO stock solutions. After drying the leaf discs were infested with five L1 larvae. The samples were assessed for mortality, anti-feedant effect, and growth inhibition in comparison to untreated samples 3 days after infestation. Control of Spodoptera littoralis by a test sample is when at least one of mortality, anti-feedant effect, and growth inhibition is higher than the untreated sample.

In another data set the test system is Plutella xylostella. The data set is described as follows: Plutella xylostella (diamond back moth) artificial diet test. The data set is classed as in vivo. Particulars: 120 h, application rate 200 ppm, L2 larvae, 5 days after infestation, vs untreated, read-out: effect in at least one of the two categories (mortality or growth inhibition). As for the experimental part:
Plutella xylostella (Diamond Back Moth):
24-well microtiter plates with artificial diet were treated with aqueous test solutions prepared from 10′000 ppm DMSO stock solutions by pipetting. After drying, the plates were infested with L2 larvae (10 to 15 per well). The samples were assessed for mortality and growth inhibition in comparison to untreated samples 5 days after infestation. The following compounds gave an effect of at least 80% in at least one of the two categories (mortality or growth inhibition) at an application rate of 200 ppm: 1, 2, 3, 4, 7, 8, 9, 10, 11, 12, 13, 14, 15, 16, 17, 18, 19, 20, 21, 22, 23, 24, 26, 27, 28 and 29.

A further data set relates to Diabrotica balteata. The experiment in a line: Diabrotica balteata (corn root worm) maize sprout spray test. The conditions noted are these: 96 h, application rate 200 ppm, L2 larvae, 4 days after infestation, vs untreated, read-out: effect in at least one of the two categories (mortality or growth inhibition). Type of data set: in vivo. As for the experimental part: Diabrotica balteata, (Corn Root Worm)
Maize sprouts, placed on an agar layer in 24-well microtiter plates were treated with aqueous test solutions prepared from 10′000 ppm DMSO stock solutions by spraying. After drying, the plates were infested with L2 larvae (6 to 10 per well). The samples were assessed for mortality and growth inhibition in comparison to untreated samples 4 days after infestation. The following compounds gave an effect of at least 80% in at least one of the two categories (mortality or growth inhibition) at an application rate of 200 ppm: 1, 2, 3, 4, 7, 8, 9, 11, 12, 13, 14, 15, 16, 17, 18, 19, 20, 21, 27, 28 and 29.

In a further data set the test system is Thrips tabaci. The experiment in a line: Thrips tabaci (onion thrips) sunflower leaf disc spray test. The data set is classed as in vivo. The conditions noted are these: foliar, 144 h, application rate 200 ppm, population of mixed ages, 6 days after infestation. As for the experimental part: Thrips tabaci (Onion Thrips):
Sunflower leaf discs were placed on agar in 24-well microtiter plates and sprayed with aqueous test solutions prepared from 10′000 ppm DMSO stock solutions. After drying the leaf discs were infested with a Thrips population of mixed ages. The samples were assessed for mortality 6 days after infestation.

The next data set relates to Tetranychus urticae. The data set is described as follows: Tetranychus urticae (two-spotted spider mite) bean leaf disc spray test. The data set is classed as in vivo. Particulars: foliar, 192 h, application rate 200 ppm, 8 days after infestation, read-out: mortality on mixed population (mobile stages). As for the experimental part: Tetranychus urticae (Two-Spotted Spider Mite):
Bean leaf discs on agar in 24-well microtiter plates were sprayed with aqueous test solutions prepared from 10′000 ppm DMSO stock solutions. After drying the leaf discs were infested with a mite population of mixed ages. The samples were assessed for mortality on mixed population (mobile stages) 8 days after infestation.

Another data set has as its system Euschistus heros. The experiment in a line: Euschistus heros (neotropical brown stink bug) soybean leaf spray test. The conditions noted are these: 120 h, application rate 200 ppm, N2 nymphs, 5 days after infestation, vs untreated, read-out: effect in at least one of the two categories (mortality or growth inhibition). Type of data set: in vivo. As for the experimental part:
Euschistus heros (Neotropical Brown Stink Bug)
Soybean leaves on agar in 24-well microtiter plates were sprayed with aqueous test solutions prepared from 10′000 ppm DMSO stock solutions. After drying the leaves were infested with N2 nymphs. The samples were assessed for mortality and growth inhibition in comparison to untreated samples 5 days after infestation. The following compounds gave an effect of at least 80% in at least one of the two categories (mortality or growth inhibition) at an application rate of 200 ppm: 1, 2, 3, 7, 8, 9, 12, 13, 14, 15, 17, 18, 21, 25, 26, 27, 28 and 29.

The values below come from patent publication US11040962B2, “Pesticidally active pyrazole derivatives” (SYNGENTA PARTICIPATIONS AG, priority 2017, dated 2021).

Bounds are passed on as bounds.

In general, melting point refers to the temperature, or range, at which the solid turns liquid. Usually mortality stands for the share of the test organisms that died.

As to `CCN(C(=O)c1cc(-c2cn(-c3c(C(F)(F)F)c(C(F)(F)C(F)(F)F)nn3C)nn2)sc1C#N)C1(C#N)CC1` [Compound 6, 2-cyano-N-(1-cyanocyclopropyl)-N-ethyl-5-[1-[2-methyl-5-(1,1,2,2,2-pentafluoroethyl)-4-(trifluoromethyl)pyrazol-3-yl]triazol-4-yl]thiophene-3-carboxamide], the melting point is 62 to 64 °C.

Regarding `CN(C(=O)c1cc(-c2cn(-c3c(C(F)(F)F)c(C(F)(F)C(F)(F)F)nn3C)nn2)sc1C#N)C1(C#N)CC1` [Compound 5, 2-cyano-N-(1-cyanocyclopropyl)-N-methyl-5-[1-[2-methyl-5-(1,1,2,2,2-pentafluoroethyl)-4-(trifluoromethyl)pyrazol-3-yl]triazol-4-yl]thiophene-3-carboxamide], the melting point lay within 185 to 187 °C.

Turning to `Cn1nc(C(F)(F)C(F)(F)F)c(C(F)(F)F)c1-c1cc(-c2cc(C(=O)NC3CC3)c(C#N)s2)on1` [Compound 13, 2-cyano-N-cyclopropyl-5-[3-[2-methyl-5-(1,1,2,2,2-pentafluoroethyl)-4-(trifluoromethyl)pyrazol-3-yl]isoxazol-5-yl]thiophene-3-carboxamide], in the data set on Spodoptera littoralis, the percent control (mortality, anti-feedant effect or growth inhibition) at 200 ppm was no less than 80%. Further, the percent effect (mortality or growth inhibition) at 200 ppm in the data set with Plutella xylostella, in the data set on Diabrotica balteata and with Euschistus heros was no less than 80% throughout. In addition, the mortality at 200 ppm in the data set with Thrips tabaci and in the data set with Tetranychus urticae was no less than 80% in each case.
